Where “and” joins values, the source holds several entries; their conditions need not be identical. Equal values may be shown once. Entries after “also recorded” stand apart in the source; their conditions may differ.
Legend:
CYP2D6 = CYP2D6 (Homo sapiens, UniProt P10635); experiment: In vitro CYP inhibition (direct and time-dependent), CYP2D6; format: in vitro ADME
Excerpt: (§1) However, the likelihood of drug interactions is low since healthy participants who meet eligibility criteria will be enrolled in this Phase 1b/2a clinical trial. An allowance for select concomitant medications may be considered for select participants at the discretion of the investigator and/or sponsor if drug profiles are not anticipated to interact with Compound A. Such medications may include, but will not be limited to paracetamol or ibuprofen as assessed by both the PI and the Sponsor. […] Additional precautions to avoid grapefruit, pomegranates, star fruit, or Seville oranges for 7 days prior to admission, and juices and products containing these fruits for the duration of the study will be taken.

mammalian cell = experiment: Chromosomal aberration assay (in vitro mammalian cell assay); format: cell-based; conditions: highest doses tested
[1] = In vitro molar extinction coefficient assay; format: physicochemical; conditions: UV light
Excerpt: As a result, participants will be advised to minimize exposure to sunlight, wear sunglasses and clothing that minimizes exposure to sunlight, and use sun cream on exposed areas when going outdoors during the 28-Day dosing period and until 10 days post last dose.

male rats = experiment: Rat single dose GLP study (toxicity, sperm parameters); format: in vivo
Excerpt: (§2) No efficacy was observed after single dose studies in the rat.

[2] = as above; format: in vivo; conditions: male, in vivo; rat, single dose; highest dose tested
Excerpt: as §2

[3] = tested on: male NHPs (cynomolgus monkeys); experiment: NHP exploratory 14-day non-GLP repeat-dose study; format: in vivo, cynomolgus monkey
Experimental: (§3) An exploratory 14-day non-GLP study was conducted in male NHPs (cynomolgus monkeys) for assessment of efficacy and toxicity parameters prior to the conduct of the 28-day GLP toxicity studies in rats and dogs.

[4] = NHP exploratory 14-day non-GLP repeat-dose study; format: in vivo, cynomolgus monkey; conditions: male, cynomolgus monkey, in vivo; for NOAEL at 14 days: NHP
Experimental: as §3

[5] = Dog GLP 28-day repeat-dose study, PK at the NOAEL; conditions: male, Beagle, in vivo, 5 mg/kg, 5 mg/kg (NOAEL); for AUC(0-t): AUC0-24, dog
CYP3A4/5 = experiment: In vitro CYP inhibition (direct and time-dependent), CYP3A4/5; format: in vitro ADME; conditions: human
Excerpt: as §1

male dogs = experiment: Dog single dose non-GLP study; format: in vivo
male Beagle dogs = experiment: Dog single dose cardiovascular study; conditions: male Beagle dogs, single dose 2.5, 5 or 25 mg/kg
[6] = Dog single dose cardiovascular study; conditions: male, Beagle, dog, in vivo
[7] = In vitro stability in liver microsomes (human); format: in vitro ADME
Experimental: (§4) Respective half-lives (T1/2) were 9.5 hours (human), 23.1 hours (monkeys), >23.1 hours (mice), >23.1 hours (rats), 19.6 hours (rabbits), and >23.1 hours (dogs).

[8] = Rat GLP single dose study, PK at the NOAEL; conditions: male, in vivo, 1000 mg/kg, single dose 1,000 mg/kg (NOAEL)
[9] = Phase 1b MAD study (Part 1), 28-day dosing, PK; format: in vivo, human; conditions: for Cmax / AUC0-24 / AUC(0-t) / AUC(0-inf) / half-life: mean; for Tmax: median;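 on all read-outs here: PK profiles sampled across 24 h on Day 1 and Day 28 while participants stayed overnight in the clinical research unit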
Excerpt: • Part 1: Participants will have overnight stays in the clinical research unit in order to monitor their wellbeing and obtain 24-hour PK profiles on Day 1 and Day 28.

[10] = NHP non-GLP 14-day repeat-dose study, PK at the NOAEL; conditions: male, cynomolgus monkey, in vivo, 10 mg/kg, 10 mg/kg (NOAEL); for AUC(0-t): read-out: AUC0-24
[11] = In vitro stability in microsomes (dog); format: in vitro ADME; conditions: dogs
Experimental: as §4

CYP2B6 = CYP2B6 (Homo sapiens, UniProt P20813); experiment: In vitro CYP inhibition (direct and time-dependent), CYP2B6; format: in vitro ADME
Sequence of CYP2B6 (P20813 whole entry): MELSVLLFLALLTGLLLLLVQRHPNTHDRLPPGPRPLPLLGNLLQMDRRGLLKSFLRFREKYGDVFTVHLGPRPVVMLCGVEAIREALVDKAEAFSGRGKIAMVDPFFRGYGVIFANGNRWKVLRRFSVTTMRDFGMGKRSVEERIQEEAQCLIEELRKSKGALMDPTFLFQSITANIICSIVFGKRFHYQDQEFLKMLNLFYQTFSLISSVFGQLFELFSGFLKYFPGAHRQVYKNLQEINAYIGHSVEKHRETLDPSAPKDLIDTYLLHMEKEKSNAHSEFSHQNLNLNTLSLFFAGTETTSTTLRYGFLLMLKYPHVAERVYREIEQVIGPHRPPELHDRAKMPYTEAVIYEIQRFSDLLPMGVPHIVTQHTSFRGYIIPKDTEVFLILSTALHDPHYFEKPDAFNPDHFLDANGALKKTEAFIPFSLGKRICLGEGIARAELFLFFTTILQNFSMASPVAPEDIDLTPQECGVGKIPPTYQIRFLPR
Excerpt: as §1

mice = experiment: Mating trials with mice; format: in vivo, mouse; conditions: 10 mg/kg/day for 4 weeks
[12] = male, human, in vivo, oral, 30 mg, […] mg once daily, Day 28
[13] = male, human, in vivo, oral, 15 mg once daily, Day 28

Sequence of CYP2D6 (P10635 whole entry): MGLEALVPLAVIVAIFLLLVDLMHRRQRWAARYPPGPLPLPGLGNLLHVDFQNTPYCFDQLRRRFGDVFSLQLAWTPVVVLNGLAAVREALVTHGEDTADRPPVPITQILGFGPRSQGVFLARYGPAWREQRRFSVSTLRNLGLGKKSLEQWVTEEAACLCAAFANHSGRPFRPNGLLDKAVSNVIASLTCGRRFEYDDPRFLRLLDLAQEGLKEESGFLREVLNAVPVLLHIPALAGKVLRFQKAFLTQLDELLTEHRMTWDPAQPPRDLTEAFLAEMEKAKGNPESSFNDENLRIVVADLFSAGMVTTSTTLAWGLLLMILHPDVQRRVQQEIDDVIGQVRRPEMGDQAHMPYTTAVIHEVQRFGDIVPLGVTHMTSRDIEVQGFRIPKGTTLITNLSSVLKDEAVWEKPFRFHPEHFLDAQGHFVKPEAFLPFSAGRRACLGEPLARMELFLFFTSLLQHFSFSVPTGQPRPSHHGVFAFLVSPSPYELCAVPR

In the case of `Cc1ccc(C2=CC(C)(C)Oc3ccc(-c4ccc(-c5ccc(C(=O)O)cc5)[nH]4)cc32)cc1` [Compound A], the IC50 (CYP2D6; CYP2D6) is reported as > 100 µM, the “Time-dependent inhibition (TDI)” value (CYP2D6; CYP2D6, 0.3 to 100 μM) is reported as “NADPH-independent time-dependent inhibition” and the “Genotoxicity: chromosomal aberration” value (mammalian cell) is reported as “not genotoxic; also recorded: no genotoxic potential; also recorded: Clean”. The Phototoxicity potential [1] was “potential to cause phototoxicity”, the “Tolerated single dose (highest dose tested)” value (male rats; male rats, GLP study) was 1,000 mg/kg and the “Human dose 60 kg, safety factor 10” value (male rats; male, rat, in vivo, 15 days) was 967.74 mg. For the same compound, the HED (male rats; rat, single dose 1,000 mg/kg) was 161.3 mg/kg and 161.29 mg/kg, the “Impact on sperm parameters after single dose” value (male rats; rats, single doses as high as 1,000 mg/kg, Day 15 post dose) was “no impact on sperm parameters” and the NOAEL at 15 days [2] was 1000 mg/kg. For the same compound, the “NOAEL increase over the minimum efficacious dose in rats” value ([3]; NHP NOAEL 10 mg/kg/day) was 22 fold, the Signs of toxicity ([3]; cynomolgus monkey, in vivo) was “No signs of toxicity” and the “HED (based on BSA)” value ([3]; of NHP 14-day repeat-dose NOAEL) was 3.23 mg/kg and 3.2 mg/kg. For the same compound, the “HED for 60 kg BW” value ([3]; of NHP repeat-dose NOAEL) was 192 mg, the HED for 80 kg BW ([3]; of NHP repeat-dose NOAEL) was 256 mg and the Human equivalent dose of NOAEL at 14 days ([4]; NHP 14-day non-GLP, NOAEL 10 mg/kg/day, read-out: HED of NOAEL) was 3.2 mg/kg/day. The NOAEL at 14 days ([4]; 14-day repeat dose non-GLP, 5-20 mg/kg/day) was 10 mg/kg/day, the NOAEL at 14 days ([4]; 14-day repeat-dose) was 10 mg/kg and the AUC(0-t) ([5]; Day 1, mean) was 43800 ng·h/mL. For the same compound, the AUC(0-t) ([5]; Day 28, mean) was 80800 ng·h/mL, the Cmax ([5]; Day 1, n = 9, mean) was 3410 ng/mL and the Cmax ([5]; Day 28, mean) was 4800 ng/mL. For the same compound, the half-life ([5]; T1/2, dog, Day 1, median) was 13.9 h, the Tmax ([5]; Tmax, Day 28, median) was 2 h and the IC50 (CYP3A4/5; CYP3A4/5, midazolam as substrate) was 58.6 µM. The IC50 (CYP3A4/5; CYP3A4/5, testosterone as substrate) was 53.6 µM, the “HED of tolerated single dose” value (male dogs; dogs, 500 mg/kg) was 277.8 mg/kg and the “Tolerated single dose (highest dose tested)” value (male dogs; male dogs, non-GLP study) was 500 mg/kg. For the same compound, the “Main outcomes: dog cardiovascular (effects)” value (male Beagle dogs) was “no effects; also recorded: Clean”, the NOAEL [6] was 25 mg/kg and the “Half-life (T1/2) in microsomes” value [7] was 9.5 h. For the same compound, the AUC(0-t) ([8]; Day 1, mean, read-out: AUC0-24) was 560000 ng·h/mL, the Tmax ([8]; Day 1, median) was 48 h and the half-life ([8]; Day 1, median, calculated from only 2 animals) was 16.9 h. For the same compound, the Cmax ([8]; Day 1, n = 20, mean) was 45100 ng/mL, the Cmax ([9]; 15 mg once daily, Day 1) was 247.8 ng/mL and the AUC0-24 ([9]; 15 mg once daily, Day 28) was 6,414 h*ng/mL. The AUC0-24 ([9]; 90 mg once daily, Day 1) was 14,091/ h*ng/mL, the Cmax ([9]; 90 mg once daily, Day 1) was 794.3 ng⁻¹ mL⁻¹ and the AUC0-24 ([9]; 90 mg once daily, Day 28) was 22,710/ h*ng/mL. For the same compound, the Cmax ([9]; 90 mg once daily, Day 28) was 1,165/ ng/mL, the AUC0-24 ([9]; […] mg once daily, Day 1) was 10,060/ h*ng/mL and the Cmax ([9]; […] mg once daily, Day 1) was 544.5 ng⁻¹ mL⁻¹. The AUC0-24 ([9]; […] mg once daily, Day 28) was 9,585/ h*ng/mL, the Cmax ([9]; […] mg once daily, Day 28) was 551.5 ng⁻¹ mL⁻¹ and the AUC(0-t) ([9]; male, human, in vivo, oral, 15 mg, 15 mg once daily, Day 1, read-out: AUC0-24) was 4850 ng·h/mL. For the same compound, the AUC(0-t) ([9]; male, human, in vivo, oral, 15 mg, 15 mg once daily, Day 1, read-out: AUC0-last) was 4850 ng·h/mL, the Cmax ([9]; male, human, in vivo, oral, 15 mg, 15 mg once daily, Day 1, read-out: Cmax) was 275 ng/mL and the AUC(0-t) ([9]; male, human, in vivo, oral, 15 mg, 15 mg once daily, Day 28, read-out: AUC0-24) was 6420 ng·h/mL. It also gave an AUC(0-t) ([9]; male, human, in vivo, oral, 15 mg, 15 mg once daily, Day 28, read-out: AUC0-last) of 24700 ng·h/mL, a Cmax ([9]; male, human, in vivo, oral, 15 mg, 15 mg once daily, Day 28, read-out: Cmax) of 348 ng/mL and an AUC(0-t) ([9]; male, human, in vivo, oral, 30 mg, 30 mg once daily, Day 1, read-out: AUC0-24) of 10100 ng·h/mL. It also gave an AUC(0-t) ([9]; male, human, in vivo, oral, 30 mg, 30 mg once daily, Day 1, read-out: AUC0-last) of 10100 ng·h/mL, a Cmax ([9]; male, human, in vivo, oral, 30 mg, 30 mg once daily, Day 1, read-out: Cmax) of 544 ng/mL and an AUC(0-t) ([9]; male, human, in vivo, oral, 30 mg, 30 mg once daily, Day 28, read-out: AUC0-24) of 9580 ng·h/mL. The AUC(0-t) ([9]; male, human, in vivo, oral, 30 mg, 30 mg once daily, Day 28, read-out: AUC0-last) was 36100 ng·h/mL, the Cmax ([9]; male, human, in vivo, oral, 30 mg, 30 mg once daily, Day 28, read-out: Cmax) was 552 ng/mL and the Tmax ([9]; male, human, in vivo, oral, 30 mg, 30 mg once daily, Day 28) was 6 h. For the same compound, the AUC(0-inf) [9, 12] was 36400 ng·h/mL, the half-life [9, 12] was 28.9 h and the AUC(0-t) ([9]; male, human, in vivo, oral, 90 mg, 90 mg once daily, Day 1, read-out: AUC0-24) was 14100 ng·h/mL. For the same compound, the AUC(0-t) ([9]; male, human, in vivo, oral, 90 mg, 90 mg once daily, Day 1, read-out: AUC0-last) was 14100 ng·h/mL, the Cmax ([9]; male, human, in vivo, oral, 90 mg, 90 mg once daily, Day 1, read-out: Cmax) was 794 ng/mL and the Tmax ([9]; male, human, in vivo, oral, 90 mg, 90 mg once daily, Day 1) was 6 h. The AUC(0-t) ([9]; male, human, in vivo, oral, 90 mg, 90 mg once daily, Day 28, read-out: AUC0-24) was 22700 ng·h/mL, the Cmax ([9]; male, human, in vivo, oral, 90 mg, 90 mg once daily, Day 28, read-out: Cmax) was 1160 ng/mL and the AUC(0-inf) [9, 13] was 27500 ng·h/mL. For the same compound, the half-life [9, 13] was 35.8 h, the half-life ([10]; Day 1, mean ± SD) was 7.9 ± 1.7 h and the AUC(0-t) ([10]; Day 1, mean) was 147000 ng·h/mL. The Cmax ([10]; Day 1, n = 3, mean) was 13000 ng/mL, the Cmax ([10]; Day 14, mean) was 6530 ng/mL and the half-life ([10]; Day 14, mean ± SD) was 6.2 ± 0.4 h. For the same compound, the AUC(0-t) ([10]; Day 14, mean) was 69700 ng·h/mL, the half-life ([11]; dog, read-out: Half-life (T1/2) in microsomes) was > 23.1 h and the Compound remaining intact ([11]; 90 minutes) was 101%. For the same compound, the IC50 (CYP2B6; CYP2B6) was 6.1 µM, the “Time-dependent inhibition (TDI)” value (CYP2B6; CYP2B6, 0.3 to 100 μM) was “no TDI potential” and the “Complete recovery of fertility after cessation of dosing” value (mice) was 6-10 weeks. The “Infertility (based on the number of viable embryos)” value (mice) was 99%.
